Results taken from patent US11053281B2, “Peptoid affinity ligands” (MIKE-ANN, LLC, priority 2016, dated 2021).
*1 amine or outer side, *2 acyl side, *3 side chain or, on linkers, in order; H or OH if unused. Where a SMILES comes first, the peptide text is derived from it. [ ]: non-standard residue; d: D form. Gly(N(CH2)2(3-indolyl)) = O=C(O)CNCCc1c[nH]c2ccccc12; N(4-hydroxyphenethyl)Gly = O=C(O)CNCCc1ccc(O)cc1; Gly(N-(CH2)3-guanidino) = N=C(N)NCCCNCC(=O)O; NGly(CH2(3-pyridyl)) = O=C(O)CNCc1cccnc1; N(CH2CH2COOH)Gly = O=C(O)CCNCC(=O)O; Gly(N(CH2)3NH2) = NCCCNCC(=O)O; Cysteamide = C(CS[*:3])N[*:1]; Nme = COCCNCC(=O)O; Sar = CNCC(=O)O

System: polyclonal human IgG
Assay: Adsorption isotherm of peptoid affinity resins against polyclonal human IgG
Format: binding
Parameters: Qmax: unit not given here
Conditions: Table 2; for Qmax: maximum capacity (qmax) of resin from isotherm fit; for Kd: peptoid ligand conjugated to chromatographic resin, IgG in PBS, hyperbola fit of isotherm, Kd given in molar, read-out: Kd x 10^−6
Protocol: The affinity for the peptoid-resin combinations was determined by measuring the adsorption isotherm of each resin against polyclonal human IgG (Pakimna et al., J Applied Sci., 12(11): 1136-1141, 2012). Briefly, 0.050 mL of 50% resin slurry was pipetted into 6 individual wells of a 96-well filter plate (0.45 micron, PVDF, Harvard Apparatus). The resin was washed with 2×250 μL PBS using a vacuum manifold. To an individual well, 0.25 mL of a human polyclonal IgG solution at different concentrations (10, 5, 2.5, 1.25, 0.625, and 0.3125 mg/mL) was added. The resin/IgG suspension was agitated gently on a rocking table for 30 minutes. The fluid was then collected via vacuum, and the resin was washed with 0.25 mL of PBS. The filtrate and wash were then analyzed by the BCA assay to determine the residual IgG concentration relative to the starting concentration of the solution.
The equilibrium concentrations were then used to determine the capacity of the resin at each IgG concentration using the following formula: q=Volumesample×(Initial Concentration−Equilibrium Concentration)/Volumeresin
A plot of q versus equilibrium concentration was generated and the data fit with a hyperbola to determine the affinity constant (Kd) and the maximum capacity (qmax) according to the below formula, where C=the equilibrium concentration of antibody in solution: q=qmax×C/(kd+C) Typical adsorption isotherm is shown in FIG. 2. Tabulated Kd and qmax data is found in Table 2.

| Compound | Qmax | Kd [µM] |
| --- | --- | --- |
| COCCN(CC(=O)NCCS)C(=O)CN(CCc1c[nH]c2ccccc12)C(=O)CN(CCc1c[nH]c2ccccc12)C(=O)CNCCCN [Ligand 16-77-3] (H-[Gly(N(CH2)3NH2)][Gly(N(CH2)2(3-indolyl))][Gly(N(CH2)2(3-indolyl))][Nme]-Cysteamide) | 47 | 4 |
| CN(CC(=O)NCCS)C(=O)CN(CCC(=O)O)C(=O)CN(Cc1cccnc1)C(=O)CN(CCCNC(=N)N)C(=O)CN(CCC(=O)O)C(=O)CN(CCc1c[nH]c2ccccc12)C(=O)CNCc1cccnc1 [Ligand 18-28-9] (H-[NGly(CH2(3-pyridyl))][Gly(N(CH2)2(3-indolyl))][N(CH2CH2COOH)Gly][Gly(N-(CH2)3-guanidino)][NGly(CH2(3-pyridyl))][N(CH2CH2COOH)Gly][Sar]-Cysteamide) | 41 | 10 |
| CN(CC(=O)NCCS)C(=O)CN(CCC(=O)O)C(=O)CN(Cc1cccnc1)C(=O)CN(CCCNC(=N)N)C(=O)CN(CCCNC(=N)N)C(=O)CN(CCc1ccc(O)cc1)C(=O)CNCCc1ccc(O)cc1 [Ligand 18-28-1] (H-[N(4-hydroxyphenethyl)Gly][N(4-hydroxyphenethyl)Gly][Gly(N-(CH2)3-guanidino)][Gly(N-(CH2)3-guanidino)][NGly(CH2(3-pyridyl))][N(CH2CH2COOH)Gly][Sar]-Cysteamide) | 41 | 7.7 |
